Source: patent publication EP4603105A1, “PHARMACEUTICAL COMPOSITION CONTAINING CYCLIC COMPOUND HAVING SELECTIVE KRAS INHIBITORY EFFECT AGAINST HRAS AND NRAS” (CHUGAI SEIYAKU KABUSHIKI KAISHA, priority 2022, dated 2024)
*1 amine or outer side, *2 acyl side, *3 side chain or, on linkers, in order; H or OH if unused. Where a SMILES comes first, the peptide text is derived from it. Bridges are numbered along the chain shown (N, C = ends). [ ]: non-standard residue; d: D form. The star is where a group is joined. hPhe(3,5-F2-4-CF3) = N[C@@H](CCc1cc(F)c(C(F)(F)F)c(F)c1)C(=O)O; hPhe(3-Cl-4-CF3) = N[C@@H](CCc1ccc(C(F)(F)F)c(Cl)c1)C(=O)O; NPrPhe(4-CF3) = CCCN[C@@H](Cc1ccc(C(F)(F)F)cc1)C(=O)O; NEtAsp = CCN([C@@H](CC(=O)[*:3])C(=O)[*:2])[*:1]; NMeGly(cPent) = CN[C@H](C(=O)O)C1CCCC1; Hyp = O=C(O)[C@@H]1C[C@@H](O)CN1; NMeD = CN[C@@H](CC(=O)O)C(=O)O; NMeL = CN[C@@H](CC(C)C)C(=O)O; αMeS = C[C@](N)(CO)C(=O)O; Morpholide = C1CN(*)CCO1; NMeA = CN[C@@H](C)C(=O)O; Ac5c = NC1(C(=O)O)CCCC1; Aze = O=C(O)[C@@H]1CCN1; Sar = CNCC(=O)O

Key:
[1] = tested on: human lung cancer strain NCI-H441; format: cell-based
Summary of the method: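 Step one: dispense the test compound in serial DMSO dilutions. Step three: add the reagent and measure […].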

[2] = target: GDP-bound NRAS wild-type protein (Homo sapiens, UniProt P01111); experiment: Binding to NRAS by surface plasmon resonance (SPR), KD and KD ratio to KRAS
Summary of the method: (§1)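 Running buffer contained 10 µM GDP and 10 mM MgCl2 to keep RAS in the GDP state, with 4% DMSO at pH 7.4. Compounds were flowed at 100 µL/min in 75 s steps of rising concentration over captured biotin-Avi RAS at 30°C. Sensorgrams were fitted 1:1 for KD.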

HRAS wild-type protein = HRAS wild-type protein (Homo sapiens, UniProt P01112); experiment: Binding to HRAS by surface plasmon resonance (SPR), KD and KD ratio to KRAS
Summary of the method: as §1

[3] = ratio of the KD value with respect to GDP-bound NRAS wild-type protein to the KD value with respect to KRAS
[4] = ratio of the KD value with respect to HRAS wild-type protein to the KD value with respect to KRAS
[5] = ratio of KD for GDP-bound NRAS wild-type protein to KD for KRAS
[6] = ratio of KD for HRAS wild-type protein to KD for KRAS

Sequence of GDP-bound NRAS wild-type protein (P01111 whole entry): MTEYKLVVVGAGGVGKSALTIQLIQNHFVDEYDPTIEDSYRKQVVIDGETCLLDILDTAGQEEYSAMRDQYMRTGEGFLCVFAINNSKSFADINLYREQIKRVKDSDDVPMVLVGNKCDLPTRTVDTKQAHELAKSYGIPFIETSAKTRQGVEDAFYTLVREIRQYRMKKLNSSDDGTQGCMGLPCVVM
Sequence of HRAS wild-type protein (P01112 whole entry): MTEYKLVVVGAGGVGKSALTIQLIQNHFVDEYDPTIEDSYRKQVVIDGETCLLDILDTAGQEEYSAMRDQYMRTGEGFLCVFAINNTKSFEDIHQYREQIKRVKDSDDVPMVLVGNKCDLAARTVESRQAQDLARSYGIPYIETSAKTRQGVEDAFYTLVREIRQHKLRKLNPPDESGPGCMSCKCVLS

Row | SMILES | IC50 [1] | NRAS /KRAS [2, 3] | HRAS /KRAS (HRAS wild-type protein; [4]) | further results
1 | CC[C@H](C)[C@@H]1NC(=O)[C@H](C)N(C)C(=O)C[C@@H](C(=O)N(C)C)N(C)C(=O)[C@H](C2CCCC2)N(C)C(=O)C2(CCC2)NC(=O)[C@@H]2CCCN2C(=O)[C@H](CCc2cc(F)c(C(F)(F)F)c(F)c2)NC(=O)CN(C)C(=O)[C@H](Cc2ccc(C(F)(F)F)cc2)N2CCCC[C@@H](C2=O)N(C)C(=O)CN(C)C1=O [PP0581] | 8 nM | C (A compound having a KD ratio of 0.1 or more and less than 3 is denoted as C) | B (a compound having 3 or more and less than 10 is denoted as B) | –
2 | CCCN1C(=O)CN(C)C(=O)CNC(=O)[C@H]([C@@H](C)CC)NC(=O)[C@H](CC(C)C)N(C)C(=O)C[C@@H](C(=O)N2CCOCC2)N(CC)C(=O)[C@H](C2CCCC2)N(C)C(=O)C2(CCCC2)NC(=O)[C@@H]2CCCN2C(=O)[C@H](CCc2ccc(C(F)(F)F)c(Cl)c2)NC(=O)CN(C)C(=O)[C@@H]1Cc1ccc(C(F)(F)F)cc1 [PP1970] ([NMeL]IG[Sar][NPrPhe(4-CF3)][Sar][hPhe(3-Cl-4-CF3)]P[Ac5c][NMeGly(cPent)][NEtAsp]-Morpholide; lactam N-11) | 16.8 nM | B (a compound having 3 or more and less than 10 is denoted as B) | B (a compound having 3 or more and less than 10 is denoted as B) | –
3 | CCCN1C(=O)[C@@H]2CCN2C(=O)[C@H](C)N(C)C(=O)[C@H]([C@@H](C)CC)NC(=O)[C@H](CC(C)C)N(C)C(=O)C[C@@H](C(=O)N(C)C)N(C)C(=O)[C@H](C2CCCC2)N(C)C(=O)C2(CCCC2)NC(=O)[C@@H]2C[C@@H](OCC)CN2C(=O)[C@H](CCc2ccc(C(F)(F)F)c(Cl)c2)NC(=O)CN(C)C(=O)[C@@H]1Cc1ccc(C(F)(F)F)cc1 [PP0438] ([NMeL]I[NMeA][Aze][NPrPhe(4-CF3)][Sar][hPhe(3-Cl-4-CF3)][Hyp](Et)[Ac5c][NMeGly(cPent)][NMeD]-NMe2; lactam N-11) | 1 nM | C (A compound having a KD ratio of 0.1 or more and less than 3 is denoted as C) | C (A compound having a KD ratio of 0.1 or more and less than 3 is denoted as C) | –

More lines, main results first:

Row | IC50 [1] | SMILES | NRAS /KRAS [2, 3] | HRAS /KRAS (HRAS wild-type protein; [4]) | further results
4 | 14.7 nM | CCO[C@@H]1C[C@H]2C(=O)NC3(CCC3)C(=O)N(C)[C@@H](C3CCCC3)C(=O)N(C)[C@H](C(=O)N(CC)CC)CC(=O)N(C)[C@@H](CC(C)C)C(=O)N[C@@H]([C@@H](C)CC)C(=O)N(C)CC(=O)N(C)[C@H]3C/C=C\CCN(C3=O)[C@@H](Cc3ccc(C(F)(F)F)cc3)C(=O)N(C)CC(=O)N[C@@H](CCc3cc(F)c(C(F)(F)F)c(F)c3)C(=O)N2C1 [PP1306] | – | – | NRAS /KRAS ([2]; ratio of KD with respect to GDP-bound NRAS wild-type protein to KD with respect to KRAS): AA (a compound having 20 or more is denoted as AA); HRAS /KRAS (HRAS wild-type protein; ratio of KD with respect to HRAS wild-type protein to KD with respect to KRAS): A (a compound having 10 or more and less than 20 is denoted as A)
5 | 1.6 nM | CCO[C@@H]1C[C@H]2C(=O)NC3(CC(C)(C)C3)C(=O)N(C)[C@@H](C3CCCC3)C(=O)N(C)[C@H](C(=O)N(C)CC)CC(=O)N(C)[C@@H](CC(F)F)C(=O)N[C@@H]([C@@H](C)CC)C(=O)N(C)CC(=O)N(C)[C@H]3C/C=C\CCN(C3=O)[C@@H](Cc3ccc(C(F)(F)F)cc3)C(=O)N(C)CC(=O)N[C@@H](CCc3ccc(C(F)(F)F)c(OC)c3)C(=O)N2C1 [PP1655] | – | – | NRAS /KRAS ([2]; ratio of KD value for GDP-bound NRAS wild-type protein to KD value for KRAS (SPR)): A (a compound having 10 or more and less than 20 is denoted as A); HRAS /KRAS (HRAS wild-type protein; ratio of KD value for HRAS wild-type protein to KD value for KRAS (SPR)): A (a compound having 10 or more and less than 20 is denoted as A)
6 | 2.2 nM | CCCN1C(=O)CN(C)C(=O)CN(C)C(=O)[C@H]([C@@H](C)CC)NC(=O)[C@@H]2CCCCCOc3ccc(cc3)C[C@H]1C(=O)N(C)CC(=O)N[C@@H](CCc1cc(F)c(C(F)(F)F)c(F)c1)C(=O)N1C[C@H](OCC)C[C@H]1C(=O)NC1(CCCC1)C(=O)N(C)[C@@H](C1CCCC1)C(=O)N(C)[C@H](C(=O)N(C)C)CC(=O)N2C [PP0895] | – | – | NRAS /KRAS [2, 5]: C (A compound having a KD ratio of 0.1 or more and less than 3 is denoted as C); HRAS /KRAS (HRAS wild-type protein; [6]): C (A compound having a KD ratio of 0.1 or more and less than 3 is denoted as C)
7 | 61.5 nM | CCCN1C(=O)[C@@H]2CCN2C(=O)CN(C)C(=O)[C@H]([C@@H](C)CC)NC(=O)[C@H](CC(C)C)N(C)C(=O)C[C@@H](C(=O)N2CCOCC2)N(C)C(=O)[C@H](C2CCCC2)N(C)C(=O)[C@](C)(COC)NC(=O)[C@@H]2CCCN2C(=O)[C@H](CCc2cc(F)c(C(F)(F)F)c(F)c2)NC(=O)CN(C)C(=O)[C@@H]1Cc1ccc(C(F)(F)F)cc1 [PP0798] ([NMeL]I[Sar][Aze][NPrPhe(4-CF3)][Sar][hPhe(3,5-F2-4-CF3)]P[αMeS](Me)[NMeGly(cPent)][NMeD]-Morpholide; lactam N-11) | – | – | NRAS /KRAS [2, 5]: C (A compound having a KD ratio of 0.1 or more and less than 3 is denoted as C); HRAS /KRAS (HRAS wild-type protein; [6]): B (a compound having 3 or more and less than 10 is denoted as B)
